Critical pressure and Critical temperature data for four compounds are collected here from the NIST ThermoML archive (doi:10.1016/j.fluid.2017.05.010).

Structures are written as SMILES. ± gives the expanded uncertainty stated by the source.

The conditions of this data set: Liquid; Resistive pulse heating.
For `CCc1cccnc1` [3-ethylpyridine], the Critical pressure is listed as 4190 ± 130 kPa and the Critical temperature amounted to 651 ± 7 K.
Taken in the same sequence, the figures for `CCc1ccc(C)nc1` [3-ethyl-6-methylpyridine] were 3250 ± 100 kPa and 656 ± 7 K.
Taken in the same sequence, the figures for `CCc1ccncc1` [γ-ethylpyridine] were 4190 ± 130 kPa and 653 ± 7 K.
The matching figures for `CCc1ccccn1` [2-ethylpyridine]: 3810 ± 110 kPa and 628 ± 6 K.
